{
  "source": "patent US5349127A",
  "about": "“Expression of herbicide metabolizing cytochromes P450” (priority 1992, dated 1994)",
  "key": {"[1]": {"system": "S. griseolus ATCC 11796, 10001 added", "assay": "Percent conversion of herbicides by cultures (Example 16)", "type": "in vitro ADME, Streptomyces griseolus", "conditions": "3.0 mg herbicide and 3.0 mg 10001 in 25 ml broth; 24 hours", "procedure": "(§1) Separate cultures (50 ml) inoculated with S. lividans C37, S. lividans transformed with pCAO200SU1-FeS-B#9, S. griseolus ATCC11796, S. griseolus PH2003 transformed with pIJ425, or S. ariseolus PH2003 transformed with pCS325 were cultured in sporulation broth for 18 hours at 30° C. with shaking. Each culture was then resuspended in 25 ml fresh sporulation broth and 3.0 mg herbicide added. In the case of cultures of S. griseolus ATCC11796, a second culture containing herbicide and 3.0 mg 10001 was also prepared. Each culture was reincubated for 24 hours, then an aliquot of the medium was withdrawn and analyzed by HPLC. The percent conversion of herbicide was determined."}, "[2]": {"system": "S. griseolus ATCC 11796", "assay": "Percent conversion of herbicides by cultures (Example 16)", "type": "in vitro ADME, Streptomyces griseolus", "conditions": "3.0 mg herbicide in 25 ml broth; 24 hours", "procedure": "as §1"}, "[3]": {"system": "S. griseolus PH2003 pCS325", "assay": "Percent conversion of herbicides by cultures (Example 16)", "type": "in vitro ADME, Streptomyces griseolus", "conditions": "3.0 mg herbicide in 25 ml broth; 24 hours", "procedure": "as §1"}, "[4]": {"system": "S. griseolus ATCC11796", "assay": "Metabolism of 10015 analogs to 10014 (Example 17)", "type": "in vitro ADME, Streptomyces griseolus", "procedure": "Cultures of S. griseolus ATCC11796 were cultivated in sporulation-broth (50ml) at 30° C. with shaking for 17 hours. Each culture was then resuspended in 25 ml fresh sporulation broth, 3.0 mg sulfonylurea was added, and the culture reincubated for 4 days. Aliquots of the medium were then analyzed by HPLC. Formation of 10014 was measured based on similarity of retention time and UV spectrum of the test metabolite to that formed by metabolism of 10015."}, "[5]": {"system": "Tobacco plants (Nicotiana tabactum cv. Wisconsin 38)", "assay": "Foliar spray of 10015 on P450SU1 transformed tobacco plants (Example 21)", "type": "in vivo, Nicotiana tabacum", "conditions": "individual plants", "description": "Tobacco plants (Nicotiana tabactum cv. Wisconsin 38) transformed with plasmids pAGS112, pSU18, pSSU-SU111, pCab-SU121 or pCab-SU131 (singly) and accumulating the P450SU1 protein were identified by Western blot analysis. Seed arising from the self pollination of individual primary transformants designated AGS112, SU18.8, SU18.14, SSU-SU111.5, […], and Cab-SU131.5 gave rise to the plants described in this Example. The progeny of primary AGS112 and Cab-SU121.5 transformants segregated for single copy kanamycin resistance. In contrast, the progeny of the plants transformed with plasmids containing P450SU1 (other than Cab-SU121.5) segregated for multicopy kanamycin resistance. Thus, most plants containing the gene encoding P450SU1 and sprayed with 10015 in this Example likely contained at least one, and in many cases multiple, copies of P450SU1, while very few individuals likely carried no copies of the gene encoding P450SU1.\nSeed from transformed and nontransformed tobacco plants was germinated in a commercial potting mix Metro-Mix® 350 for 25 days. Individual plants were then transferred to 4 inch×4 inch pots containing Metro Mix® 350 and were allowed to grow in the greenhouse for an additional 22 days at which time most plants contained 4-5 fully expanded leaves. A developmentally uniform population of plants was selected from among these transplants and the individual plants were then sprayed with a carrier solution of AGWT (90.2% Acetone: 4.8% Glycerol: 4.8% Water: 0.24% Tween 20 by volume) containing sulfonylurea compound 10015 at concentrations of 1,4, or 16 grams/hectare (g/ha). The sprayed plants were returned to the greenhouse and rated for injury 22 days later."}, "[6]": {"system": "transformed tobacco seedlings", "assay": "Tissue culture growth of transformed tobacco seed on 50 nM 10015 (Examples 22-23)", "type": "in vivo, Nicotiana tabacum", "procedure": "Growth medium was prepared from Murishige minimal organics medium (Gibco Laboratories, Grand Island, N.Y.), 8 g/l agar, supplemented with T vitamins (50 ppb biotin, 0.5 ppm pyridoxine HCl, 0.5 ppm thiamine HCl, 5 ppm nicotinic acid, 0.5 ppm folic acid, 2 ppm glycine, 100 ppm myo-inositol), sterilized and placed into sterile PlantCon plant tissue culture containers (Flow Laboratories, McLean, Va.). Tobacco seed obtained from the self-pollination of the primary transformants was surface sterilized by a treatment of not more than 30 min in 20% chlorine bleach, 0.1% sodium dodecyl sulfate, followed by rinsing in distilled water, and placed on the surface of the medium in the sterile containers. Following this treatment, the seed was allowed to germinate and grow under illumination (100 microeinsteins·m^-2 ·s^-1), at 22° C.\nBecause of the increased phytotoxicity of 10014 over that of 10015, plants grown in media containing 10015 should be growth inhibited if they contain an active cytochrome P450SU1. To test this, seeds of tobacco were grown in tissue culture media supplemented with 50 nM compound 10015, and the results are shown in Table 20.\nThis technique was used to analyze the progeny of plants transformed with both the gene for SU1 and FeS-B, and the results are shown in Table 21.\nPlants transformed With the plasmids pSuFe31 and pSuFe41 were selected for high expression of P450SU1 and FeS-B mRNA by primer extension analysis as described in Example 19, and self pollinated to produce seed. This seed was germinated on medium containing 50 nM of compound 10015 and analyzed for sensitivity to this compound (indicating the presence of an active cytochrome P450SU1 enzyme) as in Example 22."}},
  "note": "Several values for one entry are separate records, joined by “and”; a condition that tells them apart may be missing. Equal values may be shown once.",
  "data": [
    {"smiles": "CCOC(=O)c1ccccc1S(=O)(=O)NC(=O)Nc1nc(Cl)cc(OC)n1", "note": "[compound 10001, N-[(4-chloro-6-methoxy-pyrimidin-2-yl)aminocarbonyl]-2-ethoxycarbonylbenzenesulfonamide]", "values": [
      {"measurement": "Percent Conversion", "setting": "[1]", "value": 100, "unit": "%"},
      {"measurement": "Percent Conversion", "setting": "[2]", "value": 100, "unit": "%"},
      {"measurement": "Percent Conversion", "setting": "[3]", "value": 100, "unit": "%"}
    ]},
    {"smiles": "COc1cc(OC)nc(NC(=O)NS(=O)(=O)c2cccc3c2S(=O)(=O)N(C(C)C)C3)n1", "note": "[compound 10015]", "values": [
      {"measurement": "metabolism by P450SU1 to phytotoxic 10014", "setting": "[4]", "value": "metabolized"},
      {"measurement": "% Damage", "setting": "[5]; 1 g/ha, AGS 112, 22 days", "value": "0% and 10%"},
      {"measurement": "% Damage", "setting": "[5]; 1 g/ha, Cab-SU111.8, 22 days", "value": "90% and 95%"},
      {"measurement": "% Damage", "setting": "[5]; 1 g/ha, Cab-SU121.5, 22 days", "value": "85% and 95% and 20%"},
      {"measurement": "% Damage", "setting": "[5]; 1 g/ha, Cab-SU131.5, 22 days", "value": "50% and 95% and 90%"},
      {"measurement": "% Damage", "setting": "[5]; 1 g/ha, SSU-SU111.5, 22 days", "value": 95, "unit": "%"},
      {"measurement": "% Damage", "setting": "[5]; 1 g/ha, SU18.14, 22 days", "value": 40, "unit": "%"},
      {"measurement": "% Damage", "setting": "[5]; 1 g/ha, SU18.8, 22 days", "value": 10, "unit": "%"},
      {"measurement": "% Damage", "setting": "[5]; 1 g/ha, W38, 22 days after spraying", "value": "0% and 10%"},
      {"measurement": "% Damage", "setting": "[5]; 4 g/ha, AGS 112, 22 days", "value": "0% and 40%"},
      {"measurement": "% Damage", "setting": "[5]; 4 g/ha, Cab-SU111.8, 22 days", "value": "0% and 99%"},
      {"measurement": "% Damage", "setting": "[5]; 4 g/ha, Cab-SU121.5, 22 days", "value": "90% and 100% and 95%"},
      {"measurement": "% Damage", "setting": "[5]; 4 g/ha, Cab-SU131.5, 22 days", "value": "40% and 100%"},
      {"measurement": "% Damage", "setting": "[5]; 4 g/ha, SSU-SU111.5, 22 days", "value": 100, "unit": "%"},
      {"measurement": "% Damage", "setting": "[5]; 4 g/ha, SU18.14, 22 days", "value": 70, "unit": "%"},
      {"measurement": "% Damage", "setting": "[5]; 4 g/ha, SU18.8, 22 days", "value": 60, "unit": "%"},
      {"measurement": "% Damage", "setting": "[5]; 4 g/ha, W38, 22 days", "value": "0% and 10% and 20% and 30%"},
      {"measurement": "Compound 10015 Sensitive (plants demonstrating result/total plants)", "setting": "[6]; AGS502 (Control)", "value": "0/9"},
      {"measurement": "Number 10015 Resistant", "setting": "[6]; AGS502 (Control)", "value": 32},
      {"measurement": "Number 10015 Sensitive", "setting": "[6]; AGS502 (Control)", "value": 0},
      {"measurement": "Ratio Sensitive/Resistant", "setting": "[6]; AGS502 (Control)", "value": 0},
      {"measurement": "Compound 10015 Sensitive (plants demonstrating result/total plants)", "setting": "[6]; SuFe21.2", "value": "7/9"},
      {"measurement": "Compound 10015 Sensitive (plants demonstrating result/total plants)", "setting": "[6]; SuFe21.5", "value": "8/9"},
      {"measurement": "Compound 10015 Sensitive (plants demonstrating result/total plants)", "setting": "[6]; SuFe21.6", "value": "7/9"},
      {"measurement": "Compound 10015 Sensitive (plants demonstrating result/total plants)", "setting": "[6]; SuFe21.7", "value": "5/7"},
      {"measurement": "Compound 10015 Sensitive (plants demonstrating result/total plants)", "setting": "[6]; SuFe21.8", "value": "10/10"},
      {"measurement": "Number 10015 Resistant", "setting": "[6]; SuFe31.13", "value": 4},
      {"measurement": "Number 10015 Sensitive", "setting": "[6]; SuFe31.13", "value": 12},
      {"measurement": "Ratio Sensitive/Resistant", "setting": "[6]; SuFe31.13", "value": 3.0},
      {"measurement": "Number 10015 Resistant", "setting": "[6]; SuFe31.28", "value": 5},
      {"measurement": "Number 10015 Sensitive", "setting": "[6]; SuFe31.28", "value": 10},
      {"measurement": "Ratio Sensitive/Resistant", "setting": "[6]; SuFe31.28", "value": 2.0},
      {"measurement": "Number 10015 Resistant", "setting": "[6]; SuFe41.34", "value": 32},
      {"measurement": "Number 10015 Sensitive", "setting": "[6]; SuFe41.34", "value": 0},
      {"measurement": "Ratio Sensitive/Resistant", "setting": "[6]; SuFe41.34", "value": 0},
      {"measurement": "Number 10015 Resistant", "setting": "[6]; SuFe41.37", "value": 8},
      {"measurement": "Number 10015 Sensitive", "setting": "[6]; SuFe41.37", "value": 24},
      {"measurement": "Ratio Sensitive/Resistant", "setting": "[6]; SuFe41.37", "value": 3.0},
      {"measurement": "Number 10015 Resistant", "setting": "[6]; SuFe41.56", "value": 32},
      {"measurement": "Number 10015 Sensitive", "setting": "[6]; SuFe41.56", "value": 0},
      {"measurement": "Ratio Sensitive/Resistant", "setting": "[6]; SuFe41.56", "value": 0},
      {"measurement": "Number 10015 Resistant", "setting": "[6]; SuFe41.60", "value": 15},
      {"measurement": "Number 10015 Sensitive", "setting": "[6]; SuFe41.60", "value": 0},
      {"measurement": "Ratio Sensitive/Resistant", "setting": "[6]; SuFe41.60", "value": 0},
      {"measurement": "Compound 10015 Sensitive (plants demonstrating result/total plants)", "setting": "[6]; SuFell.1", "value": "2/9"},
      {"measurement": "Compound 10015 Sensitive (plants demonstrating result/total plants)", "setting": "[6]; SuFell.11", "value": "0/9"},
      {"measurement": "Compound 10015 Sensitive (plants demonstrating result/total plants)", "setting": "[6]; SuFell.3", "value": "0/8"},
      {"measurement": "Compound 10015 Sensitive (plants demonstrating result/total plants)", "setting": "[6]; SuFell.4", "value": "0/10"},
      {"measurement": "Compound 10015 Sensitive (plants demonstrating result/total plants)", "setting": "[6]; SuFell.7", "value": "0/9"},
      {"measurement": "Compound 10015 Sensitive (plants demonstrating result/total plants)", "setting": "[6]; SuFell.8", "value": "1/10"}
    ]}
  ]
}
